# Assay results published in patent US4687840A, “Hypotensive active peptides” (Texas Tech University Health Sciences Center, priority 1986, dated 1987).
# Tested on: rat tail artery helical strip
# Details: strips contracted with arginine vasopressin, dose of 100 mg/ml
# Protocol: Male and female Sprague-Dawley rats were anesthetized with pentobarbital (50 mg/kg) before removal of the tail artery. Upon isolation the artery was placed in ice cold Krebs-Hensleit solution (KHS) which was oxygenated with 95% O2, 5% CO2. The vessels were cut helically and strips of approximately 1.5 cm were secured in a Sawyer-Bartleston chamber containing KHS. The development of force of the helical strips was measured with a Grass FT.03 force displacement transducer and recorded on a Grass Model 79D polygraph. Isolated tail artery helical strips were equilibrated for one hour prior to addition of any peptide. In all cases, the strips were first contracted by adding arginine vasopressin (AVP), to the bath. The peptide being studied was then added to the bath and the degree of relaxation was determined.
structure (smiles),measurement,value
"N=C(N)NCCC[C@@H](N)C(=O)O [D Arg, D-arginine]",Tension change,0 gm
